Source: ChEMBL document CHEMBL3232987, “Investigation of Ugi-4CC derived 1H-tetrazol-5-yl-(aryl) methyl piperazinyl-6-fluoro-4-oxo-1,4-dihydroquinoline-3-carboxylic acid: synthesis, biology and 3D-QSAR analysis” (Eur J Med Chem, 2014)
Converted amounts (≈) assume the structure as drawn.

Experiments:
Staphylococcus aureus [1] = experiment: Antibacterial activity against Staphylococcus aureus ATCC 25923 by NCCLS two-fold dilution method; format: functional
Staphylococcus aureus [2] = experiment: Antibacterial activity against methicillin-resistant Staphylococcus aureus ATCC 700699 by NCCLS two-fold dilution method; format: functional
Staphylococcus aureus [3] = experiment: Antibacterial activity against Staphylococcus aureus ATCC 29213 by NCCLS two-fold dilution method; format: functional
Staphylococcus aureus [4] = experiment: Antibacterial activity against gentamicin-resistant Staphylococcus aureus ATCC 33592 by NCCLS two-fold dilution method; format: functional
Staphylococcus aureus [5] = experiment: Antibacterial activity against Staphylococcus aureus ATCC 25923 after 24 hrs by spectrophotometric analysis; format: functional, organism-based; conditions: for IC50: read-out: IC50
Staphylococcus aureus [6] = experiment: Antibacterial activity against methicillin-resistant Staphylococcus aureus ATCC 700699 after 24 hrs by spectrophotometric analysis; format: functional, organism-based; conditions: for IC50: read-out: IC50
Staphylococcus aureus [7] = experiment: Antibacterial activity against Staphylococcus aureus ATCC 29213 after 24 hrs by spectrophotometric analysis; format: functional, organism-based; conditions: for IC50: read-out: IC50
Staphylococcus aureus [8] = experiment: Antibacterial activity against gentamicin-resistant Staphylococcus aureus ATCC 33592 after 24 hrs by spectrophotometric analysis; format: functional, organism-based; conditions: for IC50: read-out: IC50
Escherichia coli [9] = experiment: Antibacterial activity against Escherichia coli by NCCLS two-fold dilution method; format: functional
Klebsiella pneumoniae [10] = experiment: Antibacterial activity against Klebsiella pneumoniae by NCCLS two-fold dilution method; format: functional
Escherichia coli [11] = experiment: Antibacterial activity against Escherichia coli after 24 hrs by spectrophotometric analysis; format: functional, organism-based; conditions: for IC50: read-out: IC50
Klebsiella pneumoniae [12] = experiment: Antibacterial activity against Klebsiella pneumoniae after 24 hrs by spectrophotometric analysis; format: functional, organism-based; conditions: for IC50: read-out: IC50
L929 [13] = experiment: Cytotoxicity against mouse L929 cells assessed as cell viability up to MIC 0.39 ug/ml after 24 hrs by MTT assay; format: cell-based; conditions: l929, 24 h
L929 [14] = experiment: Cytotoxicity against mouse L929 cells assessed as cell morphological changes at 12.5 to 50 ug/ml after 24 hrs by giemsa staining based phase contrast microscopy; conditions: l929, 24 h
[15] = Staphylococcus aureus, ATCC 25923
[16] = Staphylococcus aureus, ATCC 25923, 24 h
[17] = Staphylococcus aureus, ATCC 700699, 24 h
[18] = Staphylococcus aureus, ATCC 29213, 24 h
[19] = Staphylococcus aureus, ATCC 33592, 24 h

Compound | -logMIC (Staphylococcus aureus [1]) | MIC (Staphylococcus aureus [1]; [15]) [µg/mL] | MIC (Staphylococcus aureus [2]) [µg/mL] | MIC (Staphylococcus aureus [3]) [µg/mL] | MIC (Staphylococcus aureus [4]) [µg/mL] | MIC (Staphylococcus aureus [5]; [16]) [µg/mL] | IC50 (Staphylococcus aureus [5]; [16]) [µg/mL] | MIC (Staphylococcus aureus [6]; [17]) [µg/mL] | IC50 (Staphylococcus aureus [6]; [17]) [µg/mL] | MIC (Staphylococcus aureus [7]; [18]) [µg/mL] | IC50 (Staphylococcus aureus [7]; [18]) [µg/mL] | MIC (Staphylococcus aureus [8]; [19]) [µg/mL] | IC50 (Staphylococcus aureus [8]; [19]) [µg/mL] | MIC (Escherichia coli [9]) [µg/mL] | MIC (Klebsiella pneumoniae [10]) [µg/mL] | MIC (Klebsiella pneumoniae [12]; Klebsiella pneumoniae, 24 h) [µg/mL] | IC50 (Klebsiella pneumoniae [12]; Klebsiella pneumoniae, 24 h) [µg/mL] | Activity (L929 [13]) | also measured
CCn1cc(C(=O)O)c(=O)c2cc(F)c(N3CCN(C(c4ccc(OC)c(OC)c4OC)c4nnnn4C(C)(C)C)CC3)cc21 (centres undefined) | 5.602 | 1.56 (≈ 2.5 µM) | 50 (≈ 80.2 µM) | 3.12 (≈ 5 µM) | 3.12 (≈ 5 µM) | 0.81 (≈ 1.3 µM) | 0.4 (≈ 0.641 µM) | 50 (≈ 80.2 µM) | 50 (≈ 80.2 µM) | 1.4 (≈ 2.24 µM) | 0.8 (≈ 1.28 µM) | 0.87 (≈ 1.39 µM) | 0.75 (≈ 1.2 µM) | 50 (≈ 80.2 µM) | > 50 | > 50 | > 50 | Non-toxic | MIC (Escherichia coli [11]; Escherichia coli, 24 h): 46 µg/mL (≈ 73.8 µM); IC50 (Escherichia coli [11]; Escherichia coli, 24 h): 29 µg/mL (≈ 46.5 µM)
CCn1cc(C(=O)O)c(=O)c2cc(F)c(N3CCN(C(c4ccc(OC)c(OC)c4OC)c4nnnn4C4CCCCC4)CC3)cc21 (centres undefined) | 5.318 | 1.56 (≈ 2.4 µM) | 25 (≈ 38.5 µM) | 1.56 (≈ 2.4 µM) | 1.56 (≈ 2.4 µM) | 1.35 (≈ 2.08 µM) | 0.37 (≈ 0.569 µM) | 28.9 (≈ 44.5 µM) | 14.6 (≈ 22.5 µM) | 0.8 (≈ 1.23 µM) | 0.7 (≈ 1.08 µM) | 0.8 (≈ 1.23 µM) | 0.7 (≈ 1.08 µM) |  |  |  |  | Non-toxic | Activity (L929 [14]): Non-toxic
CCn1cc(C(=O)O)c(=O)c2cc(F)c(N3CCN(C(c4ccco4)c4nnnn4C4CCCCC4)CC3)cc21 (centres undefined) | 5.847 | 0.78 (≈ 1.42 µM) | 25 (≈ 45.5 µM) | 1.56 (≈ 2.84 µM) | 0.78 (≈ 1.42 µM) | 0.45 (≈ 0.819 µM) | 0.22 (≈ 0.4 µM) | 8.2 (≈ 14.9 µM) | 3.7 (≈ 6.73 µM) | 1.1 (≈ 2 µM) | 0.6 (≈ 1.09 µM) | 0.88 (≈ 1.6 µM) | 0.4 (≈ 0.728 µM) | 12.5 (≈ 22.7 µM) | 6.25 (≈ 11.4 µM) | 5.2 (≈ 9.46 µM) | 2.4 (≈ 4.37 µM) | Non-toxic | MIC (Escherichia coli [11]; Escherichia coli, 24 h): 11.6 µg/mL (≈ 21.1 µM); IC50 (Escherichia coli [11]; Escherichia coli, 24 h): 4.9 µg/mL (≈ 8.92 µM); Activity (L929 [14]): Non-toxic
CCn1cc(C(=O)O)c(=O)c2cc(F)c(N3CCN(C(c4ccccc4)c4nnnn4C(C)(C)C)CC3)cc21 (centres undefined) | 6.136 | 0.39 (≈ 0.731 µM) | 25 (≈ 46.9 µM) | 0.78 (≈ 1.46 µM) | 0.39 (≈ 0.731 µM) | 0.38 (≈ 0.712 µM) | 0.37 (≈ 0.693 µM) | 8.3 (≈ 15.6 µM) | 3.8 (≈ 7.12 µM) | 0.5 (≈ 0.937 µM) | 0.2 (≈ 0.375 µM) | 0.38 (≈ 0.712 µM) | 0.34 (≈ 0.637 µM) |  |  |  |  | Non-toxic | 
GENTAMICIN |  |  | > 50 | > 50 | > 50 |  |  |  |  |  |  |  |  | 1.56 | 1.56 |  |  |  | MIC (Staphylococcus aureus [1]): 1.56 µg/mL; MIC (Staphylococcus aureus [5]): 2.1 µg/mL; MIC (Staphylococcus aureus [6]): > 50 µg/mL; MIC (Staphylococcus aureus [7]): > 50 µg/mL; MIC (Staphylococcus aureus [8]): > 50 µg/mL; MIC (Escherichia coli [11]): 2.1 µg/mL; MIC (Klebsiella pneumoniae [12]): 2.1 µg/mL
O=C(O)c1cn(C2CC2)c2cc(N3CCNCC3)c(F)cc2c1=O [CIPROFLOXACIN] |  | 0.78 (≈ 2.35 µM) |  |  | 0.19 (≈ 0.573 µM) | 0.9 (≈ 2.72 µM) | 0.3 (≈ 0.905 µM) | 20.2 (≈ 61 µM) | 16.7 (≈ 50.4 µM) | 20.2 (≈ 61 µM) | 16.7 (≈ 50.4 µM) | 0.4 (≈ 1.21 µM) | 0.2 (≈ 0.604 µM) |  | 0.012 (≈ 0.0362 µM) | 0.049 (≈ 0.148 µM) | 0.02 (≈ 0.0604 µM) |  | 
CCn1cc(C(=O)O)c(=O)c2cc(F)c(N3CCN(C(c4ccc(F)cc4)c4nnnn4C(C)(C)C)CC3)cc21 (centres undefined) | 5.548 | 0.78 (≈ 1.41 µM) | 12.5 (≈ 22.7 µM) | 0.78 (≈ 1.41 µM) | 0.78 (≈ 1.41 µM) | 0.9 (≈ 1.63 µM) | 0.3 (≈ 0.544 µM) | 12.5 (≈ 22.7 µM) | 10 (≈ 18.1 µM) | 0.7 (≈ 1.27 µM) | 0.2 (≈ 0.363 µM) | 0.5 (≈ 0.906 µM) | 0.2 (≈ 0.363 µM) |  |  |  |  | Non-toxic | 
